# Patent US7018642B2 (The Procter & Gamble Company, priority 2001, dated 2006)
# Test system: S. epidermidis strain ATCC 35984
# Assay: Biofilm prevention screen (96-well microplate, crystal violet)
# Assay type: cell-based
# Settings: Staphylococcus epidermidis, ATCC35984, 32 μM, positive = prevention, negative = enhancement of biofilm formation, quadruplicate, read-out: average percentage reduction of biofilm formed relative to DMSO controls
# Description: (§1) Overnight cultures of 3 mL are made of P. aeruginosa strain PAO1 (grown in R2A medium (Handbook of Microbiological Media; CRC Press, 1997, second edition, R. M. Atlas, ed.), modified to omit Mg^2+ but to include 0.3–0.5% fructose (pH 7.0) and 3 μM ferrous ammonium sulfate), P. fluorescens strain ATCC 13525 (grown in R2A modified to omit Mg^2+ but to include 0.3–0.5% sodium pyruvate (pH 7.0)), S. epidermidis strain ATCC 35984 (grown in a ¼ dilution of TSB (Handbook of Microbiological Media; CRC Press, 1997, second edition, R. M. Atlas, ed.) supplemented with 1% fructose (pH 7.0) and 3 μM ferrous ammonium sulfate). To each type of growth medium, HEPES (pH 7.3) is optionally added to a final concentration of 10 mM.
# (§2) To PS, PVC, or PP (preferably PP or PVC) round-bottom, 96-well microplates containing 100 μl per well of the respective growth medium as described above, compounds to be tested (dissolved in DMSO) are added and mixed, to give a final concentration of 250–500 μM. These microplates then also are used to make successive dilutions of the compounds in the same respective growth medium to yield microplates containing final concentrations of, for example, 160 μM and 32 μM of the same set of compounds. Control wells are included in the dilution series that contain only DMSO. From the 3 ml overnight cultures, each of the three dilution plate sets is inoculated with 5 μl per well of a 1:1 dilution in the same liquid growth media of the appropriate culture. The covered plate is then incubated with shaking, at 30° C. (for P. aeruginosa or P. fluorescens) or 37° C. (for S. epidermidis), at 200 rpm, for 16–26 hours, in a humidity controlled environment.
# (§3) Cells present in biofilm attached to the microplate surface are stained with CV either after removal of the liquid from each well, followed by rinsing three times (aspiration and addition) with 150 μl per well phosphate buffered saline solution (PBS) and final addition of 100 μl per well of PBS, or by direct addition of stain to bacterial cultures without rinsing. To 100 μl per well of PBS or of bacterial culture, 25 μl/well of 1% CV solution (in ˜10% ethanol) is added. After incubation at room temperature for 45 minutes, the dye solution is removed from the plates. Residual dye is immediately removed by gentle rinsing with a stream of deionized water by filling and inverting the plates 4–5 times, or by using an automated pipettor. Rinsed plates are air-dried at room temperature for 0.5–2 hours. Bound dye is extracted by the addition of 150 μL per well of 95% ethanol, followed by vigorous mixing for 10–15 seconds and incubation for 45 minutes at room temperature without shaking. Subsequently, either undiluted or diluted (in ethanol) samples of extracted CV are transferred to flat bottom, polystyrene microtiter plates and absorbances at 586 nm were measured in a microplate reader. Readings from wells containing compounds are compared to the average of data from control wells that contain only DMSO. Replicate samples are measured, and results are reported as averages of the replicate well data points.
# (§4) Data are expressed in terms of the average percentage reduction of biofilm formed in the presence of each compound, relative to the DMSO controls, for quadruplicate samples. Assays are run using the three compound concentrations indicated. Positive numbers indicate prevention of biofilm formation by a compound, and negative numbers indicate enhancement of biofilm formation by a compound (percentage coefficients of variation are ≦10%).
row,SMILES,inhibition at 32 µM [%]
1,CCCCCCCCNC(=O)[C@H]1CCCN1C(=O)OC(C)(C)C [Compound 154],-16
2,"CCCCCCCCNC(=O)[C@H]1CCCCN1C(=O)CCCCCCC [Compound 28, 1-Octanoyl-(R)-(+)-2-piperidinecarboxylic acid n-octyl amide]",-5
3,CCCCNC(=O)[C@H]1CCCN1C(=O)OC(C)(C)C [Compound 152],-5

# Same assay, conditions: Staphylococcus epidermidis, ATCC35984, 160 μM, positive = prevention, negative = enhancement of biofilm formation, quadruplicate, read-out: average percentage reduction of biofilm formed relative to DMSO controls
row,SMILES,inhibition at 160 µM [%]
1,CCCCCCCCNC(=O)[C@H]1CCCN1C(=O)OC(C)(C)C [Compound 154],-42
2,"CCCCCCCCNC(=O)[C@H]1CCCCN1C(=O)CCCCCCC [Compound 28, 1-Octanoyl-(R)-(+)-2-piperidinecarboxylic acid n-octyl amide]",-44
3,CCCCNC(=O)[C@H]1CCCN1C(=O)OC(C)(C)C [Compound 152],-13

# Same assay, conditions: Staphylococcus epidermidis, ATCC35984, 390 μM, positive = prevention, negative = enhancement of biofilm formation, quadruplicate, read-out: average percentage reduction of biofilm formed relative to DMSO controls
row,SMILES,inhibition at 390 µM [%]
1,CCCCCCCCNC(=O)[C@H]1CCCN1C(=O)OC(C)(C)C [Compound 154],52
2,"CCCCCCCCNC(=O)[C@H]1CCCCN1C(=O)CCCCCCC [Compound 28, 1-Octanoyl-(R)-(+)-2-piperidinecarboxylic acid n-octyl amide]",-51
3,CCCCNC(=O)[C@H]1CCCN1C(=O)OC(C)(C)C [Compound 152],-8

# Test system: P. aeruginosa strain PAO1
# Assay: as above
# Assay type: cell-based
# Settings: Pseudomonas aeruginosa, 32 μM, positive = prevention, negative = enhancement of biofilm formation, quadruplicate, read-out: average percentage reduction of biofilm formed relative to DMSO controls
# Description: as §1, §2, §3, §4
row,SMILES,inhibition at 32 µM [%]
1,CCCCCCCCNC(=O)[C@H]1CCCN1C(=O)OC(C)(C)C [Compound 154],-1
2,"CCCCCCCCNC(=O)[C@H]1CCCCN1C(=O)CCCCCCC [Compound 28, 1-Octanoyl-(R)-(+)-2-piperidinecarboxylic acid n-octyl amide]",0
3,CCCCNC(=O)[C@H]1CCCN1C(=O)OC(C)(C)C [Compound 152],-4

# Same assay, conditions: Pseudomonas aeruginosa, 160 μM, positive = prevention, negative = enhancement of biofilm formation, quadruplicate, read-out: average percentage reduction of biofilm formed relative to DMSO controls
row,SMILES,inhibition at 160 µM [%]
1,CCCCCCCCNC(=O)[C@H]1CCCN1C(=O)OC(C)(C)C [Compound 154],-9
2,"CCCCCCCCNC(=O)[C@H]1CCCCN1C(=O)CCCCCCC [Compound 28, 1-Octanoyl-(R)-(+)-2-piperidinecarboxylic acid n-octyl amide]",-3
3,CCCCNC(=O)[C@H]1CCCN1C(=O)OC(C)(C)C [Compound 152],-9

# Same assay, conditions: Pseudomonas aeruginosa, 390 μM, positive = prevention, negative = enhancement of biofilm formation, quadruplicate, read-out: average percentage reduction of biofilm formed relative to DMSO controls
row,SMILES,inhibition at 390 µM [%]
1,CCCCCCCCNC(=O)[C@H]1CCCN1C(=O)OC(C)(C)C [Compound 154],-15
2,"CCCCCCCCNC(=O)[C@H]1CCCCN1C(=O)CCCCCCC [Compound 28, 1-Octanoyl-(R)-(+)-2-piperidinecarboxylic acid n-octyl amide]",-9
3,CCCCNC(=O)[C@H]1CCCN1C(=O)OC(C)(C)C [Compound 152],2

# Test system: P. fluorescens strain ATCC 13525
# Assay: as above
# Assay type: cell-based
# Settings: Pseudomonas fluorescens, ATCC13525, 32 μM, positive = prevention, negative = enhancement of biofilm formation, quadruplicate, read-out: average percentage reduction of biofilm formed relative to DMSO controls
# Description: as §1, §2, §3, §4
row,SMILES,inhibition at 32 µM [%]
1,CCCCCCCCNC(=O)[C@H]1CCCN1C(=O)OC(C)(C)C [Compound 154],4
2,"CCCCCCCCNC(=O)[C@H]1CCCCN1C(=O)CCCCCCC [Compound 28, 1-Octanoyl-(R)-(+)-2-piperidinecarboxylic acid n-octyl amide]",21
3,CCCCNC(=O)[C@H]1CCCN1C(=O)OC(C)(C)C [Compound 152],5

# Same assay, conditions: Pseudomonas fluorescens, ATCC13525, 160 μM, positive = prevention, negative = enhancement of biofilm formation, quadruplicate, read-out: average percentage reduction of biofilm formed relative to DMSO controls
row,SMILES,inhibition at 160 µM [%]
1,CCCCCCCCNC(=O)[C@H]1CCCN1C(=O)OC(C)(C)C [Compound 154],10
2,"CCCCCCCCNC(=O)[C@H]1CCCCN1C(=O)CCCCCCC [Compound 28, 1-Octanoyl-(R)-(+)-2-piperidinecarboxylic acid n-octyl amide]",38
3,CCCCNC(=O)[C@H]1CCCN1C(=O)OC(C)(C)C [Compound 152],5

# Same assay, conditions: Pseudomonas fluorescens, ATCC13525, 390 μM, positive = prevention, negative = enhancement of biofilm formation, quadruplicate, read-out: average percentage reduction of biofilm formed relative to DMSO controls
row,SMILES,inhibition at 390 µM [%]
1,CCCCCCCCNC(=O)[C@H]1CCCN1C(=O)OC(C)(C)C [Compound 154],11
2,"CCCCCCCCNC(=O)[C@H]1CCCCN1C(=O)CCCCCCC [Compound 28, 1-Octanoyl-(R)-(+)-2-piperidinecarboxylic acid n-octyl amide]",26
3,CCCCNC(=O)[C@H]1CCCN1C(=O)OC(C)(C)C [Compound 152],-7

# Test system: S. epidermidis strain ATCC 35984
# Assay: Improved biofilm dispersion screen (already-formed biofilms, crystal violet)
# Assay type: cell-based
# Settings: Staphylococcus epidermidis, ATCC35984, no NaOH, positive = dispersion, negative = enhancement of pre-existing biofilm, quadruplicate, read-out: average percentage reduction of biofilm relative to the two control values (dispersion)
# Description: (§5) A modification of method disclosed in Reference Example 2, which greatly improves the sensitivity and reproducibility of the dispersion screen is hereby disclosed. […] In the modification described herein, compounds are added in the presence of the fresh liquid growth media, such that the resultant biofilms continue to grow, unless a test compound triggers their dispersion. Overnight cultures are made as above, and 100 μL of the appropriate liquid growth media are dispensed into duplicate 96 well microplates—in this fashion, two identical microplates are set up for each bacterial species to be assayed. Neither compounds nor DMSO are added prior to the inoculation of bacteria, and growth in the duplicate plates for 24 hours is allowed using the conditions specified in Reference Example 1. After growth of biofilm to be tested in the wells, cells present in biofilm attached to one of the duplicate microplates is stained with CV, quantitated as described in Reference Example 1, and the data for the entire plate averaged, resulting in a growth control value, t0. The remaining replicate of each microplate pairs is treated with compounds in DMSO, or DMSO alone for control wells, by first removing the cell suspensions from the wells, then adding fresh 100 μL volumes of the same appropriate liquid growth media, followed by direct addition and mixing of the compound DMSO solutions to give final compound concentrations of 390 μM. Incubation of the compound-containing microplates is then continued for an additional 22–26 hours using the same conditions described in Reference Example 1. Cell suspensions are then removed, 100 μL per well of a 0 mM NaOH (S. epidermidis), 20 mM NaOH (P. fluorescens), or 30 mM NaOH (P. aeruginosa) solution in PBS is added, and incubation at room temperature is allowed for 30 minutes. No addition of NaOH is made to the S. epidermidis suspension since a test assay indicated no amplification by base with S. epidermidis. The microplates are subsequently rinsed three times with 150 μL per well of PBS, followed by final liquid removal, staining with CV and quantitation as described in Reference Example 1. Data for each well that contained compound result in a compound value, R, and data for control wells that contained DMSO only are averaged to generate a second control value, t24. The effect of each compound tested on dispersion of the biofilm compared to the two control values is calculated thus: [formula] […] Data are expressed in terms of the average percentage reduction of biofilm formed in the presence of each compound, relative to the two control values, for quadruplicate samples. Assays are run as described above, using compound concentrations of 390 μM. Positive numbers indicate dispersion (reduction) of pre-existing biofilms by a compound, and negative numbers indicate enhancement (stimulation of growth) of pre-existing biofilms by a compound (percentage coefficients of variation are ≦15%).
row,SMILES,inhibition at 390 µM [%]
1,CCCCCCCCNC(=O)[C@H]1CCCN1C(=O)OC(C)(C)C [Compound 154],0
2,"CCCCCCCCNC(=O)[C@H]1CCCCN1C(=O)CCCCCCC [Compound 28, 1-Octanoyl-(R)-(+)-2-piperidinecarboxylic acid n-octyl amide]",-8
3,CCCCNC(=O)[C@H]1CCCN1C(=O)OC(C)(C)C [Compound 152],-4

# Test system: P. aeruginosa strain PAO1
# Assay: as above
# Assay type: cell-based
# Settings: Pseudomonas aeruginosa, 30 mM NaOH step, positive = dispersion, negative = enhancement of pre-existing biofilm, quadruplicate, read-out: average percentage reduction of biofilm relative to the two control values (dispersion)
# Description: as §5
row,SMILES,inhibition at 390 µM [%]
1,CCCCCCCCNC(=O)[C@H]1CCCN1C(=O)OC(C)(C)C [Compound 154],-63
2,"CCCCCCCCNC(=O)[C@H]1CCCCN1C(=O)CCCCCCC [Compound 28, 1-Octanoyl-(R)-(+)-2-piperidinecarboxylic acid n-octyl amide]",-25
3,CCCCNC(=O)[C@H]1CCCN1C(=O)OC(C)(C)C [Compound 152],-9

# Test system: P. fluorescens strain ATCC 13525
# Assay: as above
# Assay type: cell-based
# Settings: Pseudomonas fluorescens, ATCC13525, 20 mM NaOH step, positive = dispersion, negative = enhancement of pre-existing biofilm, quadruplicate, read-out: average percentage reduction of biofilm relative to the two control values (dispersion)
# Description: as §5
row,SMILES,inhibition at 390 µM [%]
1,CCCCCCCCNC(=O)[C@H]1CCCN1C(=O)OC(C)(C)C [Compound 154],10
2,"CCCCCCCCNC(=O)[C@H]1CCCCN1C(=O)CCCCCCC [Compound 28, 1-Octanoyl-(R)-(+)-2-piperidinecarboxylic acid n-octyl amide]",10
3,CCCCNC(=O)[C@H]1CCCN1C(=O)OC(C)(C)C [Compound 152],1
